Test results published in patent publication US20250179059A1 (The Regents of the University of California, priority 2021, published 2025).
Where two headings read alike, the source gives them in different places.

What was measured:
[1] = target: T1, human BRD4 bromodomain II (Homo sapiens, UniProt O60885); assay: Bromodomain binding assay (AlphaScreen), BRD4 BDII
T1 construct: human BRD4 bromodomain II [based on Genbank NM_058243, residues 349-460]; host or cells: E. coli
How it was run: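 Inhibition of acetyl-H4 peptide binding to human BRD4 bromodomains is measured by bead-based proximity (AlphaScreen) in pH 7.5 HEPES buffer containing 0.05% CHAPS and 0.1% BSA. Ten compound concentrations in 3-fold steps give competitive binding IC50s.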

[2] = test system: human SKM-1 acute myeloid leukemia cells; assay: SKM-1 antiproliferation cell-based assay (ATPlite); details: Homo sapiens
How it was run: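 Log-phase cells in RPMI 1640/15% FBS were seeded at 34722 cells/mL and exposed for 4 days to nine-concentration DMSO serial dilutions in triplicate. Viability was read as ATP luminescence (ATPlite 1step), and IC50 values came from variable-slope non-linear regression.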

[3] = AlphaScreen assay, Table C2, read-out: BRD4 BDII IC50
[4] = SKM-1, 96 h, SKM-1 antiproliferation assay, 4 days, Table C2
[5] = BRD4 BDII AlphaScreen assay, read-out: BRD4 BD2 IC50
[6] = SKM-1, SKM-1 antiproliferation assay

SMILES	IC50 [1, 3]	GI50 [2, 4]	IC50 [1, 5]	GI50 [2, 6]
Cc1ncc(-c2cc(F)cc(-c3ccc(-n4ccn(C)c4=O)c(Cl)c3)c2O)cc1N1CCN(C(C)C)CC1 [Example 722, 1-(3-chloro-5′-fluoro-2′-hydroxy-3′-(5-(4-isopropylpiperazin-1-yl)-6-methylpyridin-3-yl)-[1,1′-biphenyl]-4-yl)-3-methyl-1H-imidazol-2(3H)-one]	0.01 to 1 nM	0.3 to 30 nM		
Cc1ncc(-c2cc(F)cc(-c3ccc(-n4ccn(C)c4=O)c(Cl)c3)c2O)cc1N1CCC2(CCN2C(C)C)C1 (stereo not shown) [Example 891]			1 to 10 nM	0.3 to 30 nM
CC(=O)Nc1c(F)cc(-c2cccc(-c3cc(N4CCNCC4)no3)c2O)cc1OC1CC1 [Example 135, N-(3-cyclopropoxy-5-fluoro-2′-hydroxy-3′-(3-(piperazin-1-yl)isoxazol-5-yl)-[1,1′-biphenyl]-4-yl)acetamide 2,2,2-trifluoroacetate]	1 to 10 nM	300 to 3000 nM		
Cn1cc(-c2cc(F)cc(-c3ccc(-n4ccn(C)c4=O)c(Cl)c3)c2O)cc(N2CCNCC2)c1=O [Example 437, 5-(3′-chloro-5-fluoro-2-hydroxy-4′-(3-methyl-2-oxo-2,3-dihydro-1H-imidazol-1-yl)-[1,1′-biphenyl]-3-yl)-1-methyl-3-(piperazin-1-yl)pyridin-2(1H)-one]	1 to 10 nM	0.3 to 30 nM		
CN1CCN(c2ccc(-c3cccc(-c4cnnc(N5CCNCC5)c4)c3O)cc2Cl)C1=O [Example 343, 1-(3-chloro-2′-hydroxy-3′-(6-(piperazin-1-yl)pyridazin-4-yl)-[1,1′-biphenyl]-4-yl)-3-methylimidazolidin-2-one]	1 to 10 nM	30 to 300 nM		
Cn1ccn(-c2ccc(-c3cc(F)cc(-c4ccnc(-c5cccnc5)c4)c3O)cc2Cl)c1=O [Example 480, 1−(3′-([2,3′-bipyridin]-4-yl)-3-chloro-5′-fluoro-2′-hydroxy-[1,1′-biphenyl]-4-yl)-3-methyl-1H-imidazol-2(3H)-one]	1 to 10 nM	300 to 3000 nM		
O=C1NCCN1c1ccc(-c2cc(F)cc(-c3ccnc(N4CCNCC4)c3)c2O)cc1Cl [Example 373, 1-(3-chloro-5′-fluoro-2′-hydroxy-3′-(2-(piperazin-1-yl)pyridin-4-yl)-[1,1′-biphenyl]-4-yl)imidazolidin-2-one]	10 to 100 nM	300 to 3000 nM		
Cc1ncc(-c2cc(F)cc(-c3ccc(-n4ccn(C)c4=O)c(Cl)c3)c2O)cc1N1CCC2(CCCN2C(C)C)C1 (stereo not shown) [Example 911, 1-(3-chloro-5′-fluoro-2′-hydroxy-3′-(5-(1-isopropyl-1,7-diazaspiro[4.4]nonan-7-yl)-6-methylpyridin-3-yl)-[1,1′-biphenyl]-4-yl)-3-methyl-1H-imidazol-2(3H)-one]			0.01 to 1 nM	0.3 to 30 nM
Cn1ccn(-c2ccc(-c3cc(F)cc(-c4cc(N5CCNC(C)(C)C5)c5cn[nH]c5c4)c3O)cc2Cl)c1=O [Example 589, 1-(3-chloro-3′-(4-(3,3-dimethylpiperazin-1-yl)-1H-indazol-6-yl)-5′-fluoro-2′-hydroxy-[1,1′-biphenyl]-4-yl)-3-methyl-1H-imidazol-2(3H)-one]	1 to 10 nM	0.3 to 30 nM		
CN1CCN(c2ccc(-c3cc(F)cc(-c4cnc(CO)c(N5CCNCC5)c4)c3O)cc2Cl)C1=O [Example 387, 1-(3-chloro-5′-fluoro-2′-hydroxy-3′-(6-(hydroxymethyl)-5-(piperazin-1-yl)pyridin-3-yl)-[1,1′-biphenyl]-4-yl)-3-methylimidazolidin-2-one]	1 to 10 nM	30 to 300 nM		
Cn1ccn(-c2ccc(-c3cc(F)cc(-c4cccc(N5CCN(C6CCOC6)CC5)c4)c3O)cc2Cl)c1=O (stereo not shown) [Example 867]			1 to 10 nM	30 to 300 nM
Cn1ccn(-c2ccc(-c3cc(F)cc(-c4cccc(N5CCN(C(C)(C)C)CC5)c4)c3O)cc2Cl)c1=O [Example 734, 1-(3″-(4-(tert-butyl)piperazin-1-yl)-3-chloro-5′-fluoro-2′-hydroxy-[1,1′:3′,1″-terphenyl]-4-yl)-3-methyl-1H-imidazol-2(3H)-one]	0.01 to 1 nM	0.3 to 30 nM		
CC(C)N1CCC12CCN(c1cc(-c3cc(F)cc(-c4ccc(-n5ccn(C)c5=O)c(Cl)c4)c3O)cnc1N)C2 (stereo not shown) [Example 954, 1-(3′-(6-amino-5-(1-isopropyl-1,6-diazaspiro[3.4]octan-6-yl)pyridin-3-yl)-3-chloro-5′-fluoro-2′-hydroxy-[1,1′-biphenyl]-4-yl)-3-methyl-1H-imidazol-2(3H)-one]			1 to 10 nM	0.3 to 30 nM
Cc1cc(-c2cccc(-c3ccc(N4CCN(C)C4=O)c(Cl)c3)c2O)cc(N2CCNCC2)n1 [Example 338, 1-(3-chloro-2′-hydroxy-3′-(2-methyl-6-(piperazin-1-yl)pyridin-4-yl)-[1,1′-biphenyl]-4-yl)-3-methylimidazolidin-2-one]	1 to 10 nM	30 to 300 nM		
Cn1cc(-c2cc(F)cc(-c3ccc(-n4ccn(C)c4=O)c(Cl)c3)c2O)cc(N2CC[C@@](C)(N)C2)c1=O [Example 753, (R)-3-(3-amino-3-methylpyrrolidin-1-yl)-5-(3′-chloro-5-fluoro-2-hydroxy-4′-(3-methyl-2-oxo-2,3-dihydro-1H-imidazol-1-yl)-[1,1′-biphenyl]-3-yl)-1-methylpyridin-2(1H)-one]	0.01 to 1 nM	0.3 to 30 nM		
COc1ncc(-c2cc(F)cc(-c3ccc(-n4ccn(C)c4=O)c(Cl)c3)c2O)cc1N1CC(C)(C)[C@@](C)(O)C1 [Example 872]			0.01 to 1 nM	30 to 300 nM
Cc1ncc(-c2cc(F)cc(-c3ccc(-n4ccn(C)c4=O)c(Cl)c3)c2O)cc1N1CC(C)(O)C2(CC2)C1 (stereo not shown) [Example 829, 1-(3-chloro-5′-fluoro-2′-hydroxy-3′-(5-(7-hydroxy-7-methyl-5-azaspiro[2.4]heptan-5-yl)-6-methylpyridin-3-yl)-[1,1′-biphenyl]-4-yl)-3-methyl-1H-imidazol-2(3H)-one]	0.01 to 1 nM	0.3 to 30 nM		
C[C@@H]1CN(c2cc(-c3cc(F)cc(-c4ccc(-n5ccn(C)c5=O)c(Cl)c4)c3O)cc3c2nnn3C)CCN1 [Example 605, (R)-1-(3-chloro-5′-fluoro-2′-hydroxy-3′-(1-methyl-4-(3-methylpiperazin-1-yl)-1H-benzo[d][1,2,3]triazol-6-yl)-[1,1′-biphenyl]-4-yl)-3-methyl-1H-imidazol-2(3H)-one]	0.01 to 1 nM	0.3 to 30 nM		
Cc1cc(-c2ccc(-n3ccn(C)c3=O)c(Cl)c2)c(O)c(-c2cc(N3CC[C@H](N)C3)c3nccnc3c2)c1 [Example 575]	0.01 to 1 nM	0.3 to 30 nM		
Cn1ccn(-c2ccc(-c3cc(F)cc(-c4cc(N5CC[C@H](N)C5)c5nc[nH]c5c4)c3O)cc2Cl)c1=O [Example 533, (S)-1-(3′-(4-(3-aminopyrrolidin-1-yl)-1H-benzo[d]imidazol-6-yl)-3-chloro-5′-fluoro-2′-hydroxy-[1,1′-biphenyl]-4-yl)-3-methyl-1H-imidazol-2(3H)-one]	1 to 10 nM	0.3 to 30 nM		
CC(=O)NCCOc1ncc(-c2cc(F)cc(-c3ccc(N4CCN(C)C4=O)c(Cl)c3)c2O)cc1N1CCNCC1 [Example 396, N-(2-((5-(3′-chloro-5-fluoro-2-hydroxy-4′-(3-methyl-2-oxoimidazolidin-1-yl)-[1,1′-biphenyl]-3-yl)-3-(piperazin-1-yl)pyridin-2-yl)oxy)ethyl)acetamide]	1 to 10 nM	30 to 300 nM		
COc1cc(-c2cc(F)cc(-c3ccc(-n4ccn(C)c4=O)c(Cl)c3)c2O)cc(N2CCN(C(C)(C)C)CC2)n1 [Example 732, 1-(3′-(2-(4-(tert-butyl)piperazin-1-yl)-6-methoxypyridin-4-yl)-3-chloro-5′-fluoro-2′-hydroxy-[1,1′-biphenyl]-4-yl)-3-methyl-1H-imidazol-2(3H)-one]	1 to 10 nM	0.3 to 30 nM		
C[C@@H]1CN(c2cc(-c3cc(F)cc(-c4ccc(-n5ccn(C)c5=O)c(Cl)c4)c3O)cc3[nH]cnc23)CCN1 [Example 522, (R)-1-(3-chloro-5′-fluoro-2′-hydroxy-3′-(4-(3-methylpiperazin-1-yl)-1H-benzo[d]imidazol-6-yl)-[1,1′-biphenyl]-4-yl)-3-methyl-1H-imidazol-2(3H)-one]	1 to 10 nM	0.3 to 30 nM		
CC(=O)NCCNc1ncc(-c2cc(F)cc(-c3ccc(N4CCN(C)C4=O)c(Cl)c3)c2O)cc1N1CCNCC1 [Example 395, N-(2-((5-(3′-chloro-5-fluoro-2-hydroxy-4′-(3-methyl-2-oxoimidazolidin-1-yl)-[1,1′-biphenyl]-3-yl)-3-(piperazin-1-yl)pyridin-2-yl)amino)ethyl)acetamide]	1 to 10 nM	30 to 300 nM		
CC(C)N1C2CCC1CN(c1cncc(-c3cc(F)cc(-c4ccc(-n5ccn(C)c5=O)c(Cl)c4)c3O)c1)C2 [Example 740, 1-(3-chloro-5′-fluoro-2′-hydroxy-3′-(5-(8-isopropyl-3,8-diazabicyclo[3.2.1]octan-3-yl)pyridin-3-yl)-[1,1′-biphenyl]-4-yl)-3-methyl-1H-imidazol-2(3H)-one]	0.01 to 1 nM	0.3 to 30 nM		
Cn1ccn(-c2ccc(-c3cc(F)cc(-c4cc(NC(=O)C5CC5)nc(N5CC[C@H](N)C5)c4)c3O)cc2Cl)c1=O [Example 525, (S)-N-(6-(3-aminopyrrolidin-1-yl)-4-(3′-chloro-5-fluoro-2-hydroxy-4′-(3-methyl-2-oxo-2,3-dihydro-1H-imidazol-1-yl)-[1,1′-biphenyl]-3-yl)pyridin-2-yl)cyclopropanecarboxamide]	1 to 10 nM	0.3 to 30 nM		
